Publication PMC6369734, “Spy vs. spy: selecting the best reporter for ^19F NMR competition experiments” (Chemical Communications (Cambridge, England), 2019)
Where two headings read alike, the source gives them in different places.

What was measured:
VHL (VBC complex) [1] = biological target: T1, VHL (VBC complex) (Homo sapiens, UniProt P40337); assay: 19F CPMG NMR transverse relaxation rate (R2) and R2 contrast (C2) of spy molecule with and without protein; format: binding; conditions: for R2 contrast – C2: supplement 8.1
T1 construct: equimolar complex of pVHL54-213, eloB1-104 and; made in house; host or cells: E. coli
Source text: Due to the large CSA of fluorine and the significant differences in the fluorine isotropic chemical shift (δF) between the free and bound states, the transverse relaxation rate (R2) is a well-established sensitive parameter to detect ligand binding.[4] Therefore, fluorine NMR experiments including a Carr–Purcell–Meiboom–Gill (CPMG) spin-echo filter[10] before acquisition were employed to monitor ligand binding to VHL by measuring peak intensity, as changes in other NMR parameters, such as chemical shift and peak width, were not as significant. The R2 values of the CF3 peak of each compound in the absence and in the presence of protein were determined by performing multiple ^19F CPMG experiments varying the CPMG filter (Fig. 2a). To quantify the shift in R2 upon binding, the R2 contrast (C2)[11] was determined. Ideally, a good spy molecule should have a large increase in R2 (fast relaxation) when protein is present, resulting in a large assay window for the competition experiments (Fig. 2b).
5. Measurement of the transverse relaxation rates by 19F CPMG NMR
All the NMR experiments were performed in a 500 MHz Bruker AVANCE N MR spectrometer equipped with a CPQCI -F cryoprobe. To measure the transverse relaxation rates (R 2), a solution of each spy molecule at 100 μM was prepared in 50 mM potassium phosphate monobasic (KH2PO4), pH 7.5, 100 mM NaCl, 1 mM TCEP, 2% (v/v) DMSO, 20% D2O and 10 µM trifluoroacetic acid (TFA). For each solution, 19F CPMG experiments […]
Due to the fast relaxation of molecules 21 and 22, these experiments were repeated with shorter CPMG filters (50, 100, 150, 200, 300, 400, 700 and 1000 ms). The fluorine peaks were integrated and plotted against the resp ective CPMG filters. The R 2 relaxation rates were obtained from fitting the data as a n exponential decay (GraphPad Prism 6) according to the equation below: [7]
Where I(t) is the 19F signal intensity or integral, t is the total CPMG filter in seconds, I(0) is the signal intensity when t = 0. To obtain the R2 upon addition of prot ein, all the experiments above were repeated in presence of VBC at 1 µM. Experiments were performed as triplicates and the R 2 contrasts (C2) were obtained according to the equation below: [8]
Where R2Free is the R2 obtained for the spy molecule free in solution and R2Observed is the R2 obtained with the spy molecule in presence of VBC. The raw data, fitting, R2 and C2 values for each spy molecule can be found in section 8.1. For the R2 measurements using molecule 19 at varied concentrations of spy molecule and protein, see section 8.2 . For the R2 measurements using spy molecules 6 and 11 (used to generate figures S 2, S3 and S4) see

[2] = biological target: T2, VHL (VBC complex: pVHL54-213, eloB1-104, eloC17-112) (Homo sapiens, UniProt P40337); assay: Surface plasmon resonance (SPR) steady-state binding to immobilised biotinylated AviVBC; set-up: key to K D, SPR (footnote symbol instead of value): ^c: High responses in the SPR experiments, promiscuous or unspecific binders
T2 construct: equimolar complex of pVHL54-213, eloB1-104 and; made in house; host or cells: E. coli
Protocol: The KD of each compound to VHL was determined by surface plasmon resonance (SPR) experiments.
3. Protein expression, purification and biotinylation
The VHL E3 ligase is a multi-protein complex composed of five proteins: VHL protein (pVHL), elongin B (eloB), elongin C (eloC), Cullin-2 (Cul2) and Ring-box protein 1 (Rbx1).[3] Since the compounds developed in this work bind solely to the VHL protein, the VBC complex (equimolar complex of pVHL54-213, eloB1-104 and eloC17-112) was used in all experiments, as it can be readily expressed in E. coli with high yields,[4] while the full E3 ligase would require baculovirus-insect cells expression system.[5] The expression and purification of VBC was performed as described previously by our group[2] and employed directly in all NMR experiments.
For the surface plasmon resonance (SPR) experiments, a VBC complex containing an AviTagTM in the N-terminus of eloB (AviVBC) was purified using the same procedure described for VBC. The modified eloB/eloC expression plasmid was previously developed in-house by Dr. Michael Roy and kindly shared. The AviVBC complex was site-specifically biotinylated in the AviTag using the GST-BirA method previously described by […]
4. Surface plasmon resonance experiments
The SPR experiments were performed with a Biacore T200 instrument (GE Healthcare). All measurements were performed at 20 °C with buffer containing 10 mM HEPES, pH 7.5, 150 mM NaCl, 1 mM TCEP, 0.005% (v/v) Tween® 20 and 2% (v/v) dimethyl sulfoxide (DMSO). Biotinylated AviVBC (~0.5 μM) was immobilised at 22 °C onto a Series S sensor chip SA (GE Heathcare) to levels of approximately 3500-4000 response units […]
Solutions of each spy molecule were prepared in buffer at concentrations based on previous structure-activity relationship studies of VHL ligands (K D expected in the nanomolar range for structures like spy molecules 16 and 22, or in the milimolar range for spy molecules similar to 1 and 9). From this first screen, the binding affinities were roughly estimated using the Biacore T200 evaluation software (GE Healthcare), then measurements were repeated using concentrations above and below the KD obtained in the first round to generate better curves for fitting the data accurately. Contact and dissociation times varied across the different compounds tested, but in […]
dissociated from the surface in less than sixty seconds.
Data analysis was performed using the steady state responses of the double-referenced sensorgrams (raw data subtracted from blank and reference surface injections) obtained for each concentration tested. These responses were plotted against the respective concentrations and the data fitted to a 1: 1 binding model u sing the Biacore T200 evaluation software and the following equation: […]
Where Req is the steady-state response at a given concentration C. Deviations in Req were corrected by adding an ‘offset’ term to the equation. KD is the dissociation constant to be determined and RMAX is the maximum response expected for a given compound according to the equation below:
Where n is the stoichiometry of the interaction ( in this case, n = 1) and RProtein is the immobilization level of protein. MWCompound and MWProtein are the molecular weights of compound and protein, respectively. Sensorgrams and fitting parameters for all spy molecules can be found in section 7.

VHL (VBC complex) [3] = biological target: T1, VHL (VBC complex); assay: 19F CPMG NMR transverse relaxation rate (R2) and R2 contrast (C2) of spy molecule with and without protein; format: binding; conditions: for R2 contrast – C2: section 8.3: spy molecules at 50 μM, VBC 1 μM
[4] = Spy molecule 100 μM, no protein
[5] = SPR, 20 °C, steady-state 1:1 fit, footnote b values fitted because RMAX was not reached experimentally, read-out: K D, SPR
[6] = SPR, responses too low, data could not be fitted, read-out: KD
[7] = SPR steady-state fit, supplement section 7, read-out: KD (Biacore T200 fit)
[8] = section 8.3: spy molecules at 50 μM in absence of VBC (sub-head prints Spy molecule 100 μM)
[9] = section 8.3: spy molecules at 50 μM in presence of VBC 1 μM (sub-head prints 100 μM)
[10] = SPR fit with very large error or RMAX above theoretical, unspecific / promiscuous binding suspected, read-out: KD (Biacore T200 fit, judged unreliable)

T2 sequence (P40337 54-213): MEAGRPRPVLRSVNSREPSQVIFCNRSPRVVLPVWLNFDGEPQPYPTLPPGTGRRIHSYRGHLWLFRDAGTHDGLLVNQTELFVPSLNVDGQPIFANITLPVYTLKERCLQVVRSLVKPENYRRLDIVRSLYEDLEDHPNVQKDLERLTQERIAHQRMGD
T2 sequence (Q15370 1-104 partner limits assumed): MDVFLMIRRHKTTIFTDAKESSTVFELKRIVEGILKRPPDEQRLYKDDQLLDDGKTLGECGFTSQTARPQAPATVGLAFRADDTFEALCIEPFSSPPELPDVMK
T2 sequence (Q15369 17-112 partner limits assumed): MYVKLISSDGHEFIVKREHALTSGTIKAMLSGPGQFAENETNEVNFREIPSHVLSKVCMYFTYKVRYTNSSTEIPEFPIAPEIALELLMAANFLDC
T1 sequence (P40337 54-213): as the sequence (P40337 54-213) above
T1 sequence (Q15370 1-104 partner limits assumed): as the sequence (Q15370 1-104 partner limits assumed) above
T1 sequence (Q15369 17-112 partner limits assumed): as the sequence (Q15369 17-112 partner limits assumed) above

Row | Structure (SMILES) | R2 (VHL (VBC complex) [1]; Spy molecule 100 μM + VBC 1 μM) | R2 contrast – C2 (VHL (VBC complex) [1]; Spy molecule 100 μM + VBC 1 μM) | R2 (VHL (VBC complex) [1]; [4]) | Kd [2, 5] | Kd [2, 6] | Kd [2, 7] | R2 (VHL (VBC complex) [3]; [8]) | R2 (VHL (VBC complex) [3]; [9]) | R2 contrast – C2 (VHL (VBC complex) [3]) | K D, SPR (footnote symbol instead of value) ([2]; SPR) | Kd [2, 10] | binding kinetics / dissociation rates by SPR ([2]; SPR) | SPR binding behaviour ([2]; SPR, supplement section 7)
1 | O=C(NCc1ccc(Br)c(C(F)(F)F)c1)[C@@H]1C[C@@H](O)CN1 [Compound 1] | 1.115 ± 0.020 s⁻¹ | 4.1 ± 3.1% | 1.069 ± 0.028 s⁻¹ | > 1500 µM | > 1000 µM |  |  |  |  |  |  |  | 
2 | CC(=O)NC(C(=O)N1CC(O)CC1C(=O)NCc1ccc(Br)c(C(F)(F)F)c1)C(C)(C)C (stereo not drawn) [Compound 4] | 1.924 ± 0.037 s⁻¹ | 38.9 ± 2.5% | 1.175 ± 0.027 s⁻¹ | 4.39 ± 0.12 µM |  | 4.39 µM |  |  |  |  |  |  | 
3 | Cc1ncsc1-c1ccc(CNC(=O)[C@@H]2C[C@@H](O)CN2)cc1C(F)(F)F [Compound 5] | 0.936 ± 0.011 s⁻¹ | 2.2 ± 1.8% | 0.915 ± 0.012 s⁻¹ | > 1500 µM | > 1000 µM |  |  |  |  |  |  |  | 
4 | Cc1ncsc1-c1ccc(CNC(=O)[C@@H]2C[C@@H](O)CN2C(=O)CC(C)(C)C)cc1C(F)(F)F [Compound 7] | 3.614 ± 0.088 s⁻¹ | 62.1 ± 3.0% | 1.368 ± 0.033 s⁻¹ | 67.1 ± 14 µM |  | 67.1 µM |  |  |  |  |  |  | 
5 | CC(=O)NC(C(=O)N1CC(O)CC1C(=O)NCc1ccc(-c2scnc2C)c(C(F)(F)F)c1)C(C)(C)C (stereo not drawn) [Compound 8] | 1.639 ± 0.022 s⁻¹ | 17.7 ± 2.2% | 1.349 ± 0.027 s⁻¹ | 2.99 ± 0.75 µM |  | 2.99 µM |  |  |  |  |  |  | 
6 | O=C(NCc1ccc(Br)cc1C(F)(F)F)[C@@H]1C[C@@H](O)CN1 [Compound 9] | 1.279 ± 0.022 s⁻¹ | 0.9 ± 2.7% | 1.268 ± 0.026 s⁻¹ | > 1500 µM | > 1000 µM |  |  |  |  |  |  |  | 
7 | Cc1ncsc1-c1ccc(CNC(=O)[C@@H]2C[C@@H](O)CN2)c(C(F)(F)F)c1 [Compound 13] | 1.609 ± 0.017 s⁻¹ | 3.2 ± 2.0% | 1.558 ± 0.028 s⁻¹ |  |  |  |  |  |  | ^c | 2530 µM |  | unspecific / promiscuous binding to the protein surface
8 | CC(=O)N1C[C@H](O)C[C@H]1C(=O)NCc1ccc(-c2scnc2C)cc1C(F)(F)F [Compound 14] | 3.425 ± 0.073 s⁻¹ | 53.9 ± 2.5% | 1.579 ± 0.022 s⁻¹ |  |  |  |  |  |  | ^c | 223 µM |  | bind unspecifically / promiscuously to the protein surface
9 | Cc1ncsc1-c1ccc(CNC(=O)[C@@H]2C[C@@H](O)CN2C(=O)CC(C)(C)C)c(C(F)(F)F)c1 [Compound 15] | 2.634 ± 0.058 s⁻¹ | 41.3 ± 2.7% | 1.545 ± 0.035 s⁻¹ | 35.2 ± 7 µM |  | 35.2 µM |  |  |  |  |  |  | 
10 | CC(=O)NC(C(=O)N1CC(O)CC1C(=O)NCc1ccc(-c2scnc2C)cc1C(F)(F)F)C(C)(C)C (stereo not drawn) [Compound 16] | 1.828 ± 0.031 s⁻¹ | 1.3 ± 2.4% | 1.805 ± 0.032 s⁻¹ | 0.268 ± 0.03 µM |  | 0.268 µM |  |  |  |  |  | too high to be determined accurately | 

The next lines start with results.

Row | R2 (VHL (VBC complex) [1]; Spy molecule 100 μM + VBC 1 μM) | R2 contrast – C2 (VHL (VBC complex) [1]; Spy molecule 100 μM + VBC 1 μM) | R2 (VHL (VBC complex) [1]; [4]) | Kd [2, 5] | Kd [2, 6] | Kd [2, 7] | R2 (VHL (VBC complex) [3]; [8]) | R2 (VHL (VBC complex) [3]; [9]) | R2 contrast – C2 (VHL (VBC complex) [3]) | K D, SPR (footnote symbol instead of value) ([2]; SPR) | Kd [2, 10] | binding kinetics / dissociation rates by SPR ([2]; SPR) | Structure (SMILES) | SPR binding behaviour ([2]; SPR, supplement section 7)
11 | 1.251 ± 0.021 s⁻¹ | 6.5 ± 2.2% | 1.170 ± 0.019 s⁻¹ | 657 ± 49 µM |  | 657 µM |  |  |  |  |  |  | CC(=O)N1C[C@H](O)C[C@H]1C(=O)NCc1ccc(Br)c(C(F)(F)F)c1 [Compound 2] | 
12 | 1.760 ± 0.039 s⁻¹ | 37.7 ± 2.6% | 1.096 ± 0.020 s⁻¹ | 878 ± 98 µM |  | 878 µM | 1.255 ± 0.043 s⁻¹ | 1.951 ± 0.062 s⁻¹ | 35.7 ± 4.0% |  |  |  | CC(=O)N1C[C@H](O)C[C@H]1C(=O)NCc1ccc(-c2scnc2C)c(C(F)(F)F)c1 [Compound 6] | 
13 | 2.740 ± 0.096 s⁻¹ | 47.9 ± 4.1% | 1.427 ± 0.033 s⁻¹ | 110 ± 9 µM |  | 110 µM | 1.534 ± 0.071 s⁻¹ | 3.122 ± 0.145 s⁻¹ | 50.9 ± 5.7% |  |  |  | CC(C)(C)CC(=O)N1C[C@H](O)C[C@H]1C(=O)NCc1ccc(Br)cc1C(F)(F)F [Compound 11] | 
14 | 3.189 ± 0.066 s⁻¹ | 62.0 ± 2.6% | 1.213 ± 0.028 s⁻¹ | 645 ± 100 µM |  |  |  |  |  |  |  |  | O=C(NCc1ccc(Br)cc1)C1CC(O)CN1C(=O)C(F)(F)F (stereo not drawn) [Compound 17] | 
15 | 4.109 ± 0.247 s⁻¹ | 3.7 ± 8.8% | 3.959 ± 0.262 s⁻¹ | 0.447 ± 0.085 µM |  | 0.447 µM |  |  |  |  |  | too high to be determined accurately | CC(C)(C)C(NC(=O)C(F)(F)F)C(=O)N1CC(O)CC1C(=O)NCc1ccc(Br)cc1 (stereo not drawn) [Compound 21] | 
